According to patent US20100209426A1, “INHIBITORS OF PROGASTRIN-INDUCED REPRESSION OF ICAT FOR TREATING AND/OR PREVENTING COLORECTAL CANCER, ADENOMATOUS POLYPOSIS OR METASTASIS DISPLAYING PROGASTRIN-SECRETING CELLS AND CELLS IN WHICH THE BETA-CATENIN/TCF-MEDIATED TRANSCRIPTIONAL PATHWAY IS CONSTITUTIVELY ACTIVE” (INSERM (INSTITUT NATIONAL DE LA SANTE ET DE LA REC HERCHE …, priority 2006, published 2010):

Tests used:
APCΔ14 mice = assay: siRNA treatment of APCΔ14 mice (spontaneous intestinal tumorigenesis); type: in vivo, mouse
Description: (§1) APCΔ14 mice were housed in conventional conditions, and randomized in two groups. The first group (n=9), was treated once daily by intraperitoneal administration of 250 μg/kg siRNA against the murine GAST mRNA. Control mice (n=9) were treated with a similar dose of siRNA against Luciferase. (siRNA sequence on FIG. S7 online). […] Adenoma scoring in the intestine and colon was described in (Colnot et al., 2004). Samples of healthy intestinal mucosa, as well as intestinal and colon adenomas, were fixed in 4% PFA and paraffin-embedded, or frozen in liquid nitrogen, for Western blotting, IHC or RNA extraction. Plasma was prepared and assayed for IL-6 and TNFα using the FACSarray system (Becton Dickinson).

[1] = tested on: Colo-26 murine CRC cells and Young adult mouse colon (YAMC) cells; assay: GAST mRNA after siRNA transfection of murine cells (RT-QPCR); type: cell-based; conditions: mouse cells (FIG. S1)
[2] = Plasma IL-6 and TNFα in siRNA-treated APCΔ14 mice; type: in vivo, mouse; conditions: two-week treatment, GAST siRNA versus Luc siRNA
Description: as §1

siRNA directed against the murine GAST gene: siRNA against the murine GAST mRNA; siRNAs mPG sense 5′-GAAGAGGCCUACGGAUGGTT-3′ (SEQ ID No 29), antisense SEQ ID No 30 (antisense CCAUCCGUAGGCCUCUUCTT; chemistry not given here)
ICAT expression in adenomas (APCΔ14 mice; APCΔ14 mice treated with siRNA): significantly increased
expression of Tcf-4 target genes in adenomas (APCΔ14 mice; APCΔ14 mice treated with siRNA): strong repression
number of cells staining for activated caspase 3 in adenomas (APCΔ14 mice; APCΔ14 mice treated with siRNA, immunohistochemistry): strongly elevated
Muc-2 and Alcian-blue positive cells in remaining small intestinal and colonic adenomas (APCΔ14 mice; APCΔ14 mice treated with siRNA, immunohistochemistry, compared to controls): greatly increased numbers
decrease in the total number of intestinal tumors (APCΔ14 mice; APCΔ14 mice, 250 μg/kg siRNA intraperitoneal once daily for two weeks, compared to Luciferase siRNA control animals): 20%
reduction in tumor size in the colon (APCΔ14 mice; APCΔ14 mice, daily siRNA for two weeks, colon, Fischer's exact test p=0.228): not reaching significance
GAST gene and progastrin expression in intestinal adenomas (APCΔ14 mice; APCΔ14 mice, daily siRNA for two weeks, compared to Luciferase-specific siRNA): reduction
tumor size in the intestine (APCΔ14 mice; APCΔ14 mice, daily siRNA for two weeks, compared to controls, Chi-square p<0.0001, n=9 per group): significant reduction
reduction in tumor size in the ileum (APCΔ14 mice; APCΔ14 mice, daily siRNA for two weeks, ileum): particularly marked
down-regulation of GAST in mouse cells [1]: effective
levels of plasma IL-6 and TNFα (proinflammatory response) [2]: No significant differences
